Source: patent publication US9795566B2, “Imidazole compound and liposome containing same” (FUJIFILM Corporation, priority 2014, dated 2017)

Test: Stability of the compounds and of the liposomes (statement in words)
Format: physicochemical
Conditions: compound itself

stability of the compound | Structure (SMILES)
very stable | CCCCCCCCCCCCCCCCN(CCCCCCCCCCCCCCCC)CCOCCOC(=O)C(N)Cc1cnc[nH]1 (centres unmarked) [Example 1]
very stable | CCCCCCCCCCCCCCCCN(CCCCCCCCCCCCCCCC)C(=O)COCCOCCOCCNC(=O)C(N)Cc1cnc[nH]1 (centres unmarked) [Example 3]
